Source: patent publication US20170190671A1, “BIS(ARYL)CATECHOL DERIVATIVES AS HERBICIDES” (E I DU PONT DE NEMOURS AND COMPANY, priority 2014, published 2017)

Experiments:
Type in all cases: in vivo
[1] = system: barnyardgrass (Echinochloa crus-galli); assay: Test C preemergence; settings: Echinochloa crus-galli, pre-emergence, read-out: Plant response rating, Barnyardgrass
Excerpt: (§1) Seeds of plant species selected from blackgrass (Alopecurus myosuroides), Italian ryegrass (Lolium multiflorum), winter wheat (Triticum aestivum), galium (catchweed bedstraw, Galium aparine), corn (Zea mays), large (Lg) crabgrass (Digitaria sanguinalis), giant foxtail (Setaria faberii), johnsongrass (Sorghum halepense), lambsquarters (Chenopodium album), morningglory (Ipomoea coccinea), yellow nutsedge (Cyperus esculentus), pigweed (Amaranthus retroflexus), ragweed (common ragweed, Ambrosia elatior), soybean (Glycine max), barnyardgrass (Echinochloa crus-galli), oilseed rape (Brassica napus), waterhemp (common waterhemp, Amaranthus rudis), and velvetleaf (Abutilon theophrasti) were planted into a blend of loam soil and sand and treated preemergence with test chemicals formulated in a non-phytotoxic solvent mixture which included a surfactant.
(§2) At the same time, plants selected from these crop and weed species and also chickweed (common chickweed, Stellaria media), kochia (Kochia scoparia), and wild oat (Avena fatua), were planted in pots containing Redi-Earth® planting medium (Scotts Company, 14111 Scottslawn Road, Marysville, Ohio 43041) comprising spaghnum peat moss, vermiculite, wetting agent and starter nutrients and treated with postemergence applications of test chemicals formulated in the same manner. Plants ranged in height from 2 to 18 cm (1- to 4-leaf stage) for postemergence treatments. Treated plants and controls were maintained in a greenhouse for 13 to 15 days, after which time all species were compared to controls and visually evaluated. Plant response ratings, summarized in Table C, are based on a scale of 0 to 100 where 0 is no effect and 100 is complete control. A dash (-) response means no test result.

[2] = system: galium (catchweed bedstraw, Galium aparine); assay: Test C preemergence; settings: Galium, pre-emergence, 336 h, scale 0 to 100, read-out: Plant response rating, Galium
Excerpt: as §1, §2

[3] = system: johnsongrass (Sorghum halepense); assay: Test C preemergence; settings: Sorghum halepense, pre-emergence, 336 h, scale 0 to 100, read-out: Plant response rating, Johnsongrass
Excerpt: as §1, §2

corn (Zea mays) = assay: Test C postemergence; settings: Zea mays, post-emergence, 336 h, Postemergence, scale 0 to 100
Outline: (§3)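 Greenhouse test; preemergence to seeds in loam/sand soil, or postemergence spray to 2-18 cm, 1- to 4-leaf plants in peat/vermiculite medium; compound in non-phytotoxic solvent plus surfactant. Visual rating vs controls at 13-15 d, 0 = no effect, 100 = complete control.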

[4] = system: waterhemp (common waterhemp, Amaranthus rudis); assay: Test C postemergence; settings: Amaranthus tuberculatus, post-emergence, Postemergence, scale 0 to 100, read-out: Plant response rating, Waterhemp
Outline: as §3

[5] = system: morningglory (Ipomoea coccinea); assay: Test C postemergence; settings: Ipomoea, post-emergence, 336 h, Postemergence, scale 0 to 100, read-out: Plant response rating, Morningglory
Outline: as §3

[6] = system: velvetleaf (Abutilon theophrasti); assay: Test C postemergence; settings: Abutilon theophrasti, post-emergence, Postemergence, scale 0 to 100, read-out: Plant response rating, Velvetleaf
Outline: as §3

[7] = system: ragweed (common ragweed, Ambrosia elatior); assay: Test C postemergence; settings: Ambrosia artemisiifolia, post-emergence, 336 h, Postemergence, scale 0 to 100, read-out: Plant response rating, Ragweed
Outline: as §3

[8] = system: winter wheat (Triticum aestivum); assay: Test C postemergence; settings: Triticum aestivum, post-emergence, 336 h, Postemergence, scale 0 to 100, read-out: Plant response rating, Wheat
Outline: as §3

soybean (Glycine max) = assay: Test C postemergence; settings: Glycine max, post-emergence, Postemergence, scale 0 to 100, read-out: Plant response rating, Soybean
Outline: as §3

[9] = system: lambsquarters (Chenopodium album); assay: Test C postemergence; settings: Chenopodium album, post-emergence, 336 h, Postemergence, scale 0 to 100, read-out: Plant response rating, Lambsquarters
Outline: as §3

[10] = system: barnyardgrass (Echinochloa crus-galli); assay: Test C postemergence; settings: Echinochloa crus-galli, post-emergence, Postemergence, scale 0 to 100, read-out: Plant response rating, Barnyardgrass
Outline: as §3

[11] = system: oilseed rape (Brassica napus); assay: Test C postemergence; settings: Brassica napus, post-emergence, Postemergence, scale 0 to 100, read-out: Plant response rating, Oilseed Rape
Outline: as §3

[12] = system: large (Lg) crabgrass (Digitaria sanguinalis); assay: Test C postemergence; settings: Digitaria sanguinalis, post-emergence, 336 h, Postemergence, scale 0 to 100, read-out: Plant response rating, Crabgrass, Large
Outline: as §3

[13] = system: Italian ryegrass (Lolium multiflorum); assay: Test C postemergence; settings: Lolium multiflorum, post-emergence, 336 h, Postemergence, scale 0 to 100, read-out: Plant response rating, Ryegrass, Italian
Outline: as §3

[14] = system: yellow nutsedge (Cyperus esculentus); assay: Test C postemergence; settings: Cyperus, post-emergence, 336 h, Postemergence, scale 0 to 100, read-out: Plant response rating, Nutsedge, Yellow
Outline: as §3

[15] = system: blackgrass (Alopecurus myosuroides); assay: Test C postemergence; settings: Alopecurus myosuroides, post-emergence, 336 h, Postemergence, scale 0 to 100, read-out: Plant response rating, Blackgrass
Outline: as §3

[16] = system: galium (catchweed bedstraw, Galium aparine); assay: Test C postemergence; settings: Galium, post-emergence, 336 h, Postemergence, scale 0 to 100, read-out: Plant response rating, Galium
Outline: as §3

[17] = system: johnsongrass (Sorghum halepense); assay: Test C postemergence; settings: Sorghum halepense, post-emergence, 336 h, Postemergence, scale 0 to 100, read-out: Plant response rating, Johnsongrass
Outline: as §3

[18] = system: chickweed (common chickweed, Stellaria media); assay: Test C postemergence; settings: Stellaria media, post-emergence, Postemergence, scale 0 to 100, read-out: Plant response rating, Chickweed
Outline: as §3

[19] = system: giant foxtail (Setaria faberii); assay: Test C postemergence; settings: Setaria faberi, post-emergence, 336 h, Postemergence, scale 0 to 100, read-out: Plant response rating, Foxtail, Giant
Outline: as §3

wild oat (Avena fatua) = assay: Test C postemergence; settings: Avena fatua, post-emergence, Postemergence, scale 0 to 100, read-out: Plant response rating, Oat, Wild
Outline: as §3

N#Cc1cccc(Oc2ncc(Cl)cn2)c1Oc1ncc(Br)cn1 [Compound 4, 2-[(5-bromo-2-pyrimidinyl)oxy]-3-[(5-chloro-2-pyrimidinyl)oxy]benzonitrile]
30%: pest or weed control at 31 g/ha ([2]; 31 g ai/ha, preemergence) | pest or weed control at 62 g/ha ([2]; 62 g ai/ha, preemergence) | pest or weed control at 16 g/ha ([9]; 16 g ai/ha)
85%: pest or weed control at 62 g/ha ([1]; 62 g ai/ha, preemergence, scale 0 to 100) | pest or weed control at 62 g/ha ([5]; 62 g ai/ha) | pest or weed control at 125 g/ha ([7]; 125 g ai/ha)
70%: pest or weed control at 125 g/ha ([4]; 125 g ai/ha) | plant injury at 31 g/ha (soybean (Glycine max); 31 g ai/ha) | plant injury at 62 g/ha (soybean (Glycine max); 62 g ai/ha) | plant injury at 125 g/ha (soybean (Glycine max); 125 g ai/ha) | pest or weed control at 31 g/ha ([9]; 31 g ai/ha)
15%: pest or weed control at 31 g/ha ([3]; 31 g ai/ha, preemergence)
20%: pest or weed control at 16 g/ha ([1]; Preemergence, 16 g ai/ha, scale 0 to 100 (0 no effect, 100 complete control)) | pest or weed control at 16 g/ha ([18]; 16 g ai/ha)
75%: pest or weed control at 62 g/ha ([4]; 62 g ai/ha) | pest or weed control at 62 g/ha ([7]; 62 g ai/ha)
50%: pest or weed control at 62 g/ha ([6]; 62 g ai/ha) | pest or weed control at 31 g/ha ([7]; 31 g ai/ha) | pest or weed control at 62 g/ha ([18]; 62 g ai/ha)
5%: pest or weed control at 16 g/ha ([2]; Preemergence, 16 g ai/ha) | Corn plant response rating (crop injury, 0 = no effect, 100 = complete kill) at 16 g/ha (corn (Zea mays); 16 g ai/ha) | Corn plant response rating (crop injury, 0 = no effect, 100 = complete kill) at 31 g/ha (corn (Zea mays); 31 g ai/ha) | Corn plant response rating (crop injury, 0 = no effect, 100 = complete kill) at 62 g/ha (corn (Zea mays); 62 g ai/ha) | plant injury at 62 g/ha ([8]; 62 g ai/ha) | plant injury at 125 g/ha ([8]; 125 g ai/ha) | pest or weed control at 16 g/ha ([10]; 16 g ai/ha) | pest or weed control at 31 g/ha ([10]; 31 g ai/ha) | pest or weed control at 62 g/ha ([10]; 62 g ai/ha) | pest or weed control at 125 g/ha ([10]; 125 g ai/ha) | pest or weed control at 16 g/ha ([12]; 16 g ai/ha) | pest or weed control at 31 g/ha ([12]; 31 g ai/ha) | pest or weed control at 62 g/ha ([12]; 62 g ai/ha) | pest or weed control at 125 g/ha ([13]; 125 g ai/ha) | pest or weed control at 16 g/ha ([17]; 16 g ai/ha) | pest or weed control at 31 g/ha ([17]; 31 g ai/ha) | pest or weed control at 62 g/ha ([17]; 62 g ai/ha) | pest or weed control at 125 g/ha ([17]; 125 g ai/ha) | pest or weed control at 31 g/ha (wild oat (Avena fatua); 31 g ai/ha)
55%: pest or weed control at 31 g/ha ([4]; 31 g ai/ha) | pest or weed control at 16 g/ha ([16]; 16 g ai/ha) | pest or weed control at 31 g/ha ([16]; 31 g ai/ha)
10%: Corn plant response rating (crop injury, 0 = no effect, 100 = complete kill) at 125 g/ha (corn (Zea mays); 125 g ai/ha) | plant injury at 31 g/ha ([11]; 31 g ai/ha) | pest or weed control at 125 g/ha ([12]; 125 g ai/ha) | pest or weed control at 62 g/ha ([14]; 62 g ai/ha) | pest or weed control at 125 g/ha ([14]; 125 g ai/ha) | pest or weed control at 125 g/ha ([15]; 125 g ai/ha) | pest or weed control at 62 g/ha (wild oat (Avena fatua); 62 g ai/ha) | pest or weed control at 125 g/ha (wild oat (Avena fatua); 125 g ai/ha)
35%: pest or weed control at 125 g/ha ([19]; 125 g ai/ha)
45%: plant injury at 62 g/ha ([11]; 62 g ai/ha) | pest or weed control at 62 g/ha ([19]; 62 g ai/ha)
0%: pest or weed control at 16 g/ha ([3]; Preemergence, 16 g ai/ha) | plant injury at 31 g/ha ([8]; 31 g ai/ha) | pest or weed control at 31 g/ha ([13]; 31 g ai/ha) | pest or weed control at 62 g/ha ([13]; 62 g ai/ha) | pest or weed control at 31 g/ha ([14]; 31 g ai/ha) | pest or weed control at 16 g/ha ([15]; 16 g ai/ha) | pest or weed control at 31 g/ha ([15]; 31 g ai/ha) | pest or weed control at 62 g/ha ([15]; 62 g ai/ha)
95%: pest or weed control at 125 g/ha ([5]; 125 g ai/ha) | pest or weed control at 125 g/ha ([16]; 125 g ai/ha)
60%: pest or weed control at 31 g/ha ([1]; 31 g ai/ha, preemergence, scale 0 to 100) | pest or weed control at 125 g/ha ([6]; 125 g ai/ha) | plant injury at 125 g/ha ([11]; 125 g ai/ha) | pest or weed control at 62 g/ha ([16]; 62 g ai/ha)
90%: pest or weed control at 125 g/ha ([9]; 125 g ai/ha)
100%: pest or weed control at 125 g/ha ([1]; 125 g ai/ha, preemergence, scale 0 to 100) | pest or weed control at 125 g/ha ([2]; 125 g ai/ha, preemergence)
40%: pest or weed control at 31 g/ha ([6]; 31 g ai/ha) | pest or weed control at 31 g/ha ([18]; 31 g ai/ha) | pest or weed control at 16 g/ha ([19]; 16 g ai/ha) | pest or weed control at 31 g/ha ([19]; 31 g ai/ha)
98%: pest or weed control at 125 g/ha ([3]; 125 g ai/ha, preemergence)
80%: pest or weed control at 62 g/ha ([3]; 62 g ai/ha, preemergence) | pest or weed control at 31 g/ha ([5]; 31 g ai/ha) | pest or weed control at 62 g/ha ([9]; 62 g ai/ha) | pest or weed control at 125 g/ha ([18]; 125 g ai/ha)
